Assay results from patent US20210116454A1, “METHODS FOR TREATING A HEMATOLOGICAL CANCER AND THE USE OF COMPANION BIOMARKERS FOR 2-(2,6-DIOXOPIPERIDIN-3-YL)-4-((2-FLUORO-4-((3-MORPHOLINOAZETIDIN-1-YL)METHYL)BENZYL)AMINO)ISOINDOLINE-1,3-DIONE” (CELGENE CORPORATION, priority 2019, published 2021).
Read-outs that look alike come from different tables or passages of the source.

Columns and labels:
Type in all cases: cell-based
SU-DHL10 CRBN^-/- cells = test: Cell proliferation in CRBN^-/- (knock out) cells, 5 days; conditions: Homo sapiens, 120 h
Description: (§1) The activated B-cell (ABC) and MYC/BCL2 double expressor cell lines SU-DHL-2 and RIVA, the germinal center B-cell (GCB) and MYC/BCL2 double hit cell lines (and expressing BCL6) Karpas-422, SU-DHL-10, WSU-DLCL2, and the primary mediastinal B-cell lymphoma (PMBL) cell line Farage were infected with a CAS9 expressing lentivirus construct to generate the control CAS9 expressing cells. The Cas9 cells had wild type cereblon expression (CRBN^WT).
(§2) To generate the cereblon knock out cells (CRBN^−/−), the individual control CAS9 cells were infected with a construct expressing a subgenomic single guide RNA (sgRNA). Western blot analysis confirmed the absence of cereblon protein in the CRBN^−/− cells, relative to the levels of the housekeeping protein β-tubulin. The CRBN^WT and CRBN^−/− cells were treated with increasing concentrations of Compound 1 for five days.

SU-DHL2 CRBN^-/- cells = test: as above; conditions: Homo sapiens, SU-DHL-2, 120 h
Description: as §1, §2

Farage CRBN^-/- cells = test: as above; conditions: 120 h
Description: as §1, §2

exhausted T cells = test: SEB-induced T-cell exhaustion restimulation assay, effector cytokine release (MSD); conditions: for EC50: T cell restimulation assay
[1] = system: bone marrow CD34+ cells from healthy donors; test: Ex vivo maturation of myeloid progenitors to neutrophils (flow cytometry)
Procedure: The effects of Compound 1 on maturation of myeloid progenitors to neutrophils were assessed in ex vivo cultures of bone marrow CD34+ cells from healthy donors and different dosing schedules were evaluated to gain insight into the schedule dependence of these events.
Myeloid differentiation was induced by adding stem cell factor (SCF), FMS-related tyrosine kinase 3 ligand (FLT3-L), and granulocyte colony stimulating factor (G-CSF) to culture media. Cell differentiation in the presence or absence of Compound 1 was evaluated at prespecified time points by flow cytometry as the percentage of cells in 5 subpopulations: (1) hematopoietic stem cells (HSC, CD34+/CD33−/CD11b−); (2) Stage I cells (CD34+/CD33+/CD11b−); (3) Stage II cells (CD34−/CD33+/CD11b−); (4) Stage III cells (CD34−/CD33+/CD11b+) and (5) Stage IV cells (CD34−/CD33−/CD11b+) cells (from immature to mature). Differentiation and viability were monitored during the complete assay every two or three days.
However, the viability of neutrophil precursors exposed to Compound 1 was not affected (FIG. 18).
Recovery of mature neutrophils after Compound 1 exposure was also evaluated in the system.

[2] = system: KARPAS-422-Cas9 and SU-DHL-4-Cas9 knock-out cells; test: Flow cytometry-based cellular competition assay in substrate knock-out cells; conditions: 0.1, 1, 10 nM
Description: Compound 1 induces autonomous cell killing activity in DLBCL cells in a cereblon-dependent manner. To investigate the consequence of loss of a single cereblon substrate, CRISPR/Cas9-mediated knockout of a cereblon substrate coupled with a flow cytometry-based cellular competition assay was utilized to assess relative cell fitness upon gene knock-out in six DLBCL cell lines: KARPAS-422, U-2932, RIVA, SU-DHL-16, HT, and SU-DHL-4 (FIG. 7, Panel A). To perform the flow cytometry-based competition assay, stable Cas9-expressing DLBCL cells were transduced with a control non-targeting sgRNA construct containing a GFP reporter (sgNT-1-GFP), or with a sgRNA construct targeting a gene of interest containing an RFP reporter (sgRNA-RFP). For targeted knock-out of each gene, two sgRNA sequences were used to knock-out Ikaros (sgIKZF1-1, sgIKZF1-2), Aiolos (sgIKZF3-1, sgIKZF3-2), and ZFP91 (sgZFP91-1, sgZFP91-3). For controls, two non-targeting sgRNAs (sgNT-1, sgNT-2), a sgRNA targeting a non-coding region of the genome (sgNC-1), and a sgRNA targeting an established essential gene ETF1 (sgETF1-1) were included. Following transduction with sgRNAs, cells were washed and mixed at a 1:1 ratio and the percentage of GFP^+ and RFP^+ cells was measured every three days for eighteen days (FIG. 7, panel B). […]

## O=C1CC[C@H](N2C(=O)c3cccc(NCc4ccc(CN5CC(N6CCOCC6)C5)cc4F)c3C2=O)C(=O)N1 [Compound 1, (S)-2-(2,6-dioxopiperidin-3-yl)-4-((2-fluoro-4-((3-morpholinoazetidin-1-yl)methyl)benzyl)amino)isoindoline-1,3-dione]
SU-DHL10 CRBN^-/- cells
  IC50: > 10 µM
SU-DHL2 CRBN^-/- cells
  IC50: > 10 µM
Farage CRBN^-/- cells
  IC50: > 10 µM
Exhausted T cells; read-out: EC50 for secreted GM-CSF levels
  EC50: 6 nM
Exhausted T cells; read-out: EC50 for secreted IFNγ
  EC50: 10 nM
Exhausted T cells; read-out: EC50 for secreted TNFα
  EC50: 10 nM
Exhausted T cells; approximately 0.001 μM for 96 hours
  GM-CSF secretion: 3000 pg/mL
Exhausted T cells; approximately 0.01 μM for 96 hours
  GM-CSF secretion: 10,000 pg/mL
Exhausted T cells; concentrations greater than 0.1 μM, 96 hours
  GM-CSF secretion plateau: under 15,000 pg/mL
[1]; 14 or 5 days of exposure
  late-stage maturation of neutrophil progenitors: blocked
[1]; 5 days treatment, 0.1 nM
  Number of Days in Washout Period Required for Recovery to 50% of Stage IV Cells: 0 days
[1]; 5 days treatment, 1 nM
  Number of Days in Washout Period Required for Recovery to 50% of Stage IV Cells: 1 days
[1]; 5 days treatment, 10 nM
  Number of Days in Washout Period Required for Recovery to 50% of Stage IV Cells: 1 days
[1]; 5 days treatment, 1000 nM
  Number of Days in Washout Period Required for Recovery to 50% of Stage IV Cells: 5 days
[1]; 14 days treatment, 0.1 nM
  Number of Days in Washout Period Required for Recovery to 50% of Stage IV Cells: 0 days
[1]; 14 days treatment, 1 nM
  Number of Days in Washout Period Required for Recovery to 50% of Stage IV Cells: 0 days
[1]; 14 days treatment, 100 nM
  Number of Days in Washout Period Required for Recovery to 50% of Stage IV Cells: 4 days
[1]; 14 days treatment, 1000 nM
  Number of Days in Washout Period Required for Recovery to 50% of Stage IV Cells: 4 days
[1]; Annexin V and 7-AAD, 14 or 5 days exposure
  viability of neutrophil precursors: not affected
[1]; after 1 week without Compound 1
  recovery of the proportion of mature neutrophils (Stage IV cells) from its nadir: ≥ 50%
[1]; one week without drug, all tested conditions
  recovery of Stage IV cells relative to Stage IV cell population in the DMSO control: at least 50%
[2]; sgIKZF1 and sgIKZF3 knock-out cells
  RFP+/GFP+ ratio relative to DMSO-treated control cells: dose-dependent decrease
[2]; sgZFP91 cells
  dose-dependent decrease in RFP+/GFP+ ratio: not observed
